From PubChem BioAssay AID1259411 (Chemical Carcinogenesis Research Information System (CCRIS), 2018)
Active and inactive are the calls of the source. How the calls were made is not given here.

System: rodent carcinogenicity bioassays, tumor incidence
Assay: CCRIS carcinogenicity studies
Conditions: Dose: 0, Dose: 0
Method in brief: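 NCI-built, expert-reviewed records of carcinogenicity and related test outcomes (mutagenicity, tumor promotion/inhibition) compiled from published and report sources, historical span 1985-2011, not updated.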

`OCC(CO)(CBr)CBr` was tested, and the carcinogen call (Species: GUPPIE, Strain/Sex: MALE, Route: AQUARIUM WATER, 24, 60, 150 MG/L FOR 9 MO THEN IN CLEAN WATER FOR 7 MO (STUDY DURATION: 16 MO), 24, 60, 150 MG/L FOR 9 MO THEN IN CLEAN WATER FOR 7 MO (STUDY DURATION: 16 MO), Tumor Site: Type of Lesion: LIVER: HEPATOCELLULAR ADENOMA OR CARCINOMA) was “active; positive”, the carcinogen call (Species: GUPPIE, Strain/Sex: MALE, Route: AQUARIUM WATER, 24, 60, 150 MG/L FOR 16 MO (STUDY DURATION: 16 MO), 24, 60, 150 MG/L FOR 16 MO (STUDY DURATION: 16 MO), Tumor Site: Type of Lesion: LIVER: HEPATOCELLULAR ADENOMA OR CARCINOMA) was “active; positive; due to mortality, exposure in 150 mg/l group terminated on day 443” and the carcinogen call (Species: MEDAKA, Strain/Sex: FEMALE, Route: AQUARIUM WATER, 24, 60, 150 MG/L FOR 14 MO (STUDY DURATION: 14 MO), 24, 60, 150 MG/L FOR 14 MO (STUDY DURATION: 14 MO)) was “inactive; negative”. The carcinogen call (Species: MEDAKA, Strain/Sex: MALE, Route: AQUARIUM WATER, 24, 60, 150 MG/L FOR 9 MO THEN IN CLEAN WATER FOR 5 MO (STUDY DURATION: 14 MO), 24, 60, 150 MG/L FOR 9 MO THEN IN CLEAN WATER FOR 5 MO (STUDY DURATION: 14 MO), Tumor Site: Type of Lesion: LIVER: HEPATOCELLULAR ADENOMA OR CARCINOMA) was “active; positive”, the carcinogen call (Species: MEDAKA, Strain/Sex: MALE, Route: AQUARIUM WATER, 24, 60, 150 MG/L FOR 14 MO (STUDY DURATION: 14 MO), 24, 60, 150 MG/L FOR 14 MO (STUDY DURATION: 14 MO), Tumor Site: Type of Lesion: LIVER: HEPATOCELLULAR ADENOMA OR CARCINOMA) was “active; positive” and the carcinogen call (Species: MOUSE, Strain/Sex: B6C3F1/FEMALE, Route: ORAL, 312, 625, 1250 PPM IN DIET FOR 104-105 WK (STUDY DURATION: 106 WK), 312, 625, 1250 PPM IN DIET FOR 104-105 WK (STUDY DURATION: 106 WK), Tumor Site: Type of Lesion: HARDERIAN GLAND: ADENOMA, CARCINOMA, LUNG: ALVEOLAR/BRONCHIOLAR ADENOMA OR CARCINOMA, SKIN(SUBCUTANEOUS TISSUE): SARCOMA, Tumor Site: Type of Lesion: HARDERIAN GLAND: ADENOMA, CARCINOMA, LUNG: ALVEOLAR/BRONCHIOLAR ADENOMA OR CARCINOMA, SKIN(SUBCUTANEOUS TISSUE): SARCOMA) was “active; positive”. The carcinogen call (Species: MOUSE, Strain/Sex: B63CF1/MALE, Route: ORAL, 312, 625, 1250 PPM IN DIET FOR 104-105 WK (STUDY DURATION: 106 WK), 312, 625, 1250 PPM IN DIET FOR 104-105 WK (STUDY DURATION: 106 WK), Tumor Site: Type of Lesion: HARDERIAN GLAND: ADENOMA, ADENOMA OR CARCINOMA, LUNG: ALVEOLAR/BRONCHIOLAR ADENOMA, ALVEOLAR/BRONCHIOLAR CARCINOMA) was “active; positive”, the carcinogen call (Species: RAT, Strain/Sex: F344/FEMALE, Route: ORAL, 2500, 5000, 10000 PPM IN DIET FOR 104-105 WK (STUDY DURATION: 105 WK), 2500, 5000, 10000 PPM IN DIET FOR 104-105 WK (STUDY DURATION: 105 WK), Tumor Site: Type of Lesion: ESOPHAGUS: SQUAMOUS CELL PAPILLOMA, MAMMARY GLAND: FIBROADENOMA, ORAL CAVITY: SQUAMOUS CELL PAPILLOMA OR SQUAMOUS CELL C, Tumor Site: Type of Lesion: ESOPHAGUS: SQUAMOUS CELL PAPILLOMA, MAMMARY GLAND: FIBROADENOMA, ORAL CAVITY: SQUAMOUS CELL PAPILLOMA OR SQUAMOUS CELL C) was “active; positive” and the carcinogen call (Species: RAT, Strain/Sex: F344/MALE, Route: ORAL, 2500, 5000, 10000 PPM IN DIET FOR 104-105 WK (STUDY DURATION: 105 WK), 2500, 5000, 10000 PPM IN DIET FOR 104-105 WK (STUDY DURATION: 105 WK), Tumor Site: Type of Lesion: ESOPHAGUS: SQUAMOUS CELL PAPILLOMA, LARGE INTESTINE: ADENOMATOUS POLYP, MAMMARY GLAND: FIBROADENOMA, FIBROADENOMA OR ADE, Tumor Site: Type of Lesion: ESOPHAGUS: SQUAMOUS CELL PAPILLOMA, LARGE INTESTINE: ADENOMATOUS POLYP, MAMMARY GLAND: FIBROADENOMA, FIBROADENOMA OR ADE) was “active; positive”. The carcinogen call (Species: RAT, Strain/Sex: F344/MALE, Route: ORAL, 20000 PPM IN DIET FOR 3 MO FOLLOWED BY NORMAL DIET FOR 21 MO (STUDY DURATION: 2 YR), Tumor Site: Type of Lesion: LARGE INTESTINE: ADENOMATOUS POLYP, LUNG: ALVEOLAR/BRONCHIOLAR ADENOMA OR CARCINOMA, MAMMARY GLAND: FIBROADENOMA, ORAL C, Tumor Site: Type of Lesion: LARGE INTESTINE: ADENOMATOUS POLYP, LUNG: ALVEOLAR/BRONCHIOLAR ADENOMA OR CARCINOMA, MAMMARY GLAND: FIBROADENOMA, ORAL C) was “active; positive”.

With `c1ccc2c(c1)-c1cccc3cccc-2c13` the carcinogen call (Species: MOUSE, Strain/Sex: B6C3F1/MALE, Route: INTRAPERITONEAL, 400 NMOL IN 35 µL DMSO ON DAYS 1 (1/7 TOTAL DOSE), 8 (2/7 TOTAL DOSE), AND 15 (4/7 TOTAL DOSE) AFTER BIRTH (STUDY DUR) was “inactive; negative”, the carcinogen call (Species: MOUSE, Strain/Sex: CD-1/FEMALE, Route: INTRAPERITONEAL, 3.46, 17.3 UMOL (TOTAL DOSE) IN DMSO ADMINISTERED ON DAYS 1, 8, AND 15 OF LIFE (STUDY DURATION: 52 WK), 3.46, 17.3 UMOL (TOTAL DOSE) IN DMSO ADMINISTERED ON DAYS 1, 8, AND 15 OF LIFE (STUDY DURATION: 52 WK), Tumor Site: Type of Lesion: LUNG: TUMOR) was “active; positive” and the carcinogen call (Species: MOUSE, Strain/Sex: CD-1/MALE, FEMALE, Route: INTRAPERITONEAL, 0.7, 1.75, 3.5 (TOTAL DOSE) ADMINISTERED TO NEWBORN MICE ON DAYS 1, 8, AND 15 OF AGE IN 1/7, 2/7, AND 4/7 DOSES, RESP, 0.7, 1.75, 3.5 (TOTAL DOSE) ADMINISTERED TO NEWBORN MICE ON DAYS 1, 8, AND 15 OF AGE IN 1/7, 2/7, AND 4/7 DOSES, RESP, Tumor Site: Type of Lesion: LUNG: ADENOMA OR ADENOCARCINOMA) was “active; positive”. The carcinogen call (Species: MOUSE, Strain/Sex: CD-1/MALE, Route: INTRAPERITONEAL, 3.46, 17.3 UMOL (TOTAL DOSE) IN DMSO ADMINISTERED ON DAYS 1, 8, AND 15 OF LIFE (STUDY DURATION: 52 WK), 3.46, 17.3 UMOL (TOTAL DOSE) IN DMSO ADMINISTERED ON DAYS 1, 8, AND 15 OF LIFE (STUDY DURATION: 52 WK), Tumor Site: Type of Lesion: LUNG: TUMOR, LIVER: TUMOR) was “active; positive”, the carcinogen call (Species: MOUSE, Strain/Sex: ICR/FEMALE, Route: INTRAPERITONEAL, 257.6 UG TOTAL DOSE (36.8 UG/5 µL, 73.6 UG/10 µL, 147.2 UG/20 µL DMSO ON DAYS 1, 8 AND 15) ADMINISTERED TO NEWBORN AN, Tumor Site: Type of Lesion: LUNG: ADENOMA) was “active; positive” and the carcinogen call (Species: MOUSE, Strain/Sex: ICR/MALE, Route: INTRAPERITONEAL, 257.6 UG TOTAL DOSE (36.8 UG/5 µL, 73.6 UG/10 µL, 147.2 UG/20 µL DMSO ON DAYS 1, 8 AND 15) ADMINISTERED TO NEWBORN AN, Tumor Site: Type of Lesion: LUNG: ADENOMA) was “active; positive”. For the same molecule, the carcinogen call (Species: MOUSE, Strain/Sex: SWISS/FEMALE, Route: INTRAPERITONEAL, 100, 500 UG IN DMSO ON DAY 1 OF STUDY FOLLOWED BY 0, 200, 1000 UG ON DAY 8 THEN 0, 400, 2000 UG ON DAY 15 ADMINISTERE, 100, 500 UG IN DMSO ON DAY 1 OF STUDY FOLLOWED BY 0, 200, 1000 UG ON DAY 8 THEN 0, 400, 2000 UG ON DAY 15 ADMINISTERE, Tumor Site: Type of Lesion: LUNG: ADENOMA OR CARCINOMA) was “active; positive” and the carcinogen call (Species: MOUSE, Strain/Sex: SWISS/MALE, Route: INTRAPERITONEAL, 100, 500 UG IN DMSO ON DAY 1 OF STUDY FOLLOWED BY 0, 200, 1000 UG ON DAY 8 THEN 0, 400, 2000 UG ON DAY 15 ADMINISTERE, 100, 500 UG IN DMSO ON DAY 1 OF STUDY FOLLOWED BY 0, 200, 1000 UG ON DAY 8 THEN 0, 400, 2000 UG ON DAY 15 ADMINISTERE, Tumor Site: Type of Lesion: LUNG: ADENOMA OR CARCINOMA) was “active; positive”.

For `O=C(CO)[C@@H](O)[C@H](O)[C@H](O)CO`, the carcinogen call (Species: RAT, Strain/Sex: SPRAGUE-DAWLEY/MALE, Route: ORAL, 120 G/L IN DRINKING WATER AD LIBITUM FOR 30 WK (STUDY DURATION: 501 D)) was “inactive; negative”.
